Laboratory results from publication PMC6918025, “Genomewide and Enzymatic Analysis Reveals Efficient D-Galacturonic Acid Metabolism in the Basidiomycete Yeast Rhodosporidium toruloides” (mSystems, 2019).

Assays:
Type in all cases: biochemical, Rhodotorula toruloides
[1] = tested on: T1, RTO4_12062 (L-galactonate dehydratase); assay: semicarbazide assay at […] nm; conditions: 5 mM MgCl2, 50 mM sodium phosphate pH 7.0; tag removed
T1 construct: gene GaaB; full-length, N-terminal HIS6-TEV tag removed by TEV protease, expressed in E. coli Rosetta, IMAC

[2] = tested on: T2, RTO4_9774 (L-glyceraldehyde reductase); assay: NADPH loss at […] nm; conditions: 0.3 mM NADPH, pH 7, 30°C
T2 construct: gene GaaD

[3] = tested on: RTO4_11882 (D-galUA reductase, GAR1 homolog); assay: NADPH loss at […] nm; conditions: 0.3 mM NADPH, pH 7, 30°C

With `O=C(O)[C@@H](O)[C@H](O)[C@H](O)[C@@H](O)CO` [L-galactonate] the Km [1] was 5.8 mM.

For `O=C[C@@H](O)CO` [L-glyceraldehyde], the Km [2] was 900 µM.

`O=C(O)[C@H]1OC(O)[C@H](O)[C@@H](O)[C@H]1O` (stereo partly drawn) [D-galUA] gave a Km [3] of roughly 7 mM.
